Measured values taken from publication PMC9299122, “Terpene synthases in cucumber (Cucumis sativus) and their contribution to herbivore‐induced volatile terpenoid emission” (The New Phytologist, 2021).

Tests used:
Assay in all cases: product formation, stir-bar GC-MS, recombinant E. coli protein
Assay type in all cases: cell-based
CsTPS24 = biological target: T1, CsTPS24 (Cucumis sativus, UniProt Q9FRX5); conditions: 30 °C, 60 min
T1 construct: gene CsKS1; full-length cDNA in pACYCDuet, E. coli BL21(DE3); gene on chromosome VII; predicted plastid transit peptide
T1 sequence (Q9FRX5 1-785): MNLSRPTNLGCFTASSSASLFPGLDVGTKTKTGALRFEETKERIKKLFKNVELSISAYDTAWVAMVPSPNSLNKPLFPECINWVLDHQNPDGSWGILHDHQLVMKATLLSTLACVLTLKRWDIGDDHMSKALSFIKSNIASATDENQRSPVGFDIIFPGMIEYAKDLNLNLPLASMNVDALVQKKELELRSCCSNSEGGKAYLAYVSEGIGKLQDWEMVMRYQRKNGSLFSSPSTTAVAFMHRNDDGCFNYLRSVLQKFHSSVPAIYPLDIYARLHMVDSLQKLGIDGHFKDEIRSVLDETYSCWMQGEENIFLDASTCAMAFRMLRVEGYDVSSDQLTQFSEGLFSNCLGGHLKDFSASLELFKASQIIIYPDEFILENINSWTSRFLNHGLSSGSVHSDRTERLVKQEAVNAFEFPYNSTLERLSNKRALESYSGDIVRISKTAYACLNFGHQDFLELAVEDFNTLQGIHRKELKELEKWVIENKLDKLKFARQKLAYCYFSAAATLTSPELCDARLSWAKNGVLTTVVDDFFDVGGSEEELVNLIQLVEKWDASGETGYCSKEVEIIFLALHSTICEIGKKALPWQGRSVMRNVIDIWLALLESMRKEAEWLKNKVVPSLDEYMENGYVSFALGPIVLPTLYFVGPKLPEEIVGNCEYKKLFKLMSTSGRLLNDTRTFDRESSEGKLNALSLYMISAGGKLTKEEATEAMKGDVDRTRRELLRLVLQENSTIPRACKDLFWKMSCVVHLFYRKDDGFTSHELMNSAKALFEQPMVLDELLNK

CsTPS12 = biological target: T2, CsTPS12 (Cucumis sativus, UniProt A0A0A0LN25); conditions: 30 °C, 60 min; 10 µM substrate
T2 construct: gene Csa_2G427840; full-length cDNA in pACYCDuet, E. coli BL21(DE3); no targeting peptide predicted
T2 sequence (A0A0A0LN25 1-565): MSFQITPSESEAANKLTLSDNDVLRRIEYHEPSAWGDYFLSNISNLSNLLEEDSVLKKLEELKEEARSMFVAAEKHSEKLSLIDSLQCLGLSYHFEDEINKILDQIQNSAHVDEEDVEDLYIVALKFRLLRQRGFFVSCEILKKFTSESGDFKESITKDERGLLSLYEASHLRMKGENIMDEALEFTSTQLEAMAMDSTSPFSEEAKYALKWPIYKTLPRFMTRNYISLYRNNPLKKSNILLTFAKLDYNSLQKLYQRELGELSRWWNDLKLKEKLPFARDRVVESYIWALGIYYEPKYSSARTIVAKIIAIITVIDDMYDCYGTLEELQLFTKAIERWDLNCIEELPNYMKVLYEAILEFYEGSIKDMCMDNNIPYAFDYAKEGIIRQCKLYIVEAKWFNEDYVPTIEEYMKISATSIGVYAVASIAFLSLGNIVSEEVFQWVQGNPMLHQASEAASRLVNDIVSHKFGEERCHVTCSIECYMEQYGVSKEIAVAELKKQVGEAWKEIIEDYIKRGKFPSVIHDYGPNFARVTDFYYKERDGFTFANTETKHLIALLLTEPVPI

CsTPS22 = biological target: T3, CsTPS22 (Cucumis sativus, UniProt A0A0A0L2I8); conditions: 30 °C, 60 min; 10 µM substrate
T3 construct: gene Csa_3G097540; full-length cDNA in pACYCDuet, E. coli BL21(DE3)
T3 sequence (A0A0A0L2I8 1-558): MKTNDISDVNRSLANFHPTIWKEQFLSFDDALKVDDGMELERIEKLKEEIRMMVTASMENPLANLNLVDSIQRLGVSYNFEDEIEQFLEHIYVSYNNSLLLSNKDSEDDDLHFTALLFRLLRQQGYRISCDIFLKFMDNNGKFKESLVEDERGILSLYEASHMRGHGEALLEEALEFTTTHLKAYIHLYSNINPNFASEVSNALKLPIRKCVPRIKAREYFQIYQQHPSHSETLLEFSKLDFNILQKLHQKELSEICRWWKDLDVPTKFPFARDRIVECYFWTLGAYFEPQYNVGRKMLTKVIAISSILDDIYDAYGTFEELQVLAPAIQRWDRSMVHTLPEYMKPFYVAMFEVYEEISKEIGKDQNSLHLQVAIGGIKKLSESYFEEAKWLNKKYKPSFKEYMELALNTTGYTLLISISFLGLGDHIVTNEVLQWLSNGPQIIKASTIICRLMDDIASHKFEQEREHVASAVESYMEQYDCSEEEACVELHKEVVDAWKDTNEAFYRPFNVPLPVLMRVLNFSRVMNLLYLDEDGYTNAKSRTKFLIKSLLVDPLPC

CsTPS19 = biological target: T4, CsTPS19 (Cucumis sativus, UniProt A0A0A0L6G4); conditions: 30 °C, 60 min; 10 µM substrate
T4 construct: gene Csa_3G095040; full-length cDNA in pACYCDuet, E. coli BL21(DE3); cytosolic
T4 sequence (A0A0A0L6G4 entry or part of it): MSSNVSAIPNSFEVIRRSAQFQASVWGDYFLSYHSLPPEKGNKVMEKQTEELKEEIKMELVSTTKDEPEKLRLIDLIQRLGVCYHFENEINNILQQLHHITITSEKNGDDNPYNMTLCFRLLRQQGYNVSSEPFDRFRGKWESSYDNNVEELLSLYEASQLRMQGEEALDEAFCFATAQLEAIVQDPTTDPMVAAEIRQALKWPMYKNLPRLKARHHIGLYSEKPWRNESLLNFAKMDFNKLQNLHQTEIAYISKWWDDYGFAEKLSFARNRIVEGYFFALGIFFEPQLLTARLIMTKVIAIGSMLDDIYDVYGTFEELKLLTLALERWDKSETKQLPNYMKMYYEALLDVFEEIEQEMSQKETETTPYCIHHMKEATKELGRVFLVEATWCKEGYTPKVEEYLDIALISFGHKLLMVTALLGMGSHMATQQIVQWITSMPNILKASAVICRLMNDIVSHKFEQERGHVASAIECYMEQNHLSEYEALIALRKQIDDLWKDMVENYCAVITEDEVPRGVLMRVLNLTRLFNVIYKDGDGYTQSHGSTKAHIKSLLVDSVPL

CsTPS14 = biological target: T5, CsTPS14 (Cucumis sativus, UniProt A0A0A0L1X6); conditions: 30 °C, 60 min; 10 µM substrate
T5 construct: gene Csa_3G039850; full-length cDNA in pACYCDuet, E. coli BL21(DE3); no targeting peptide predicted
T5 sequence (A0A0A0L1X6 1-562): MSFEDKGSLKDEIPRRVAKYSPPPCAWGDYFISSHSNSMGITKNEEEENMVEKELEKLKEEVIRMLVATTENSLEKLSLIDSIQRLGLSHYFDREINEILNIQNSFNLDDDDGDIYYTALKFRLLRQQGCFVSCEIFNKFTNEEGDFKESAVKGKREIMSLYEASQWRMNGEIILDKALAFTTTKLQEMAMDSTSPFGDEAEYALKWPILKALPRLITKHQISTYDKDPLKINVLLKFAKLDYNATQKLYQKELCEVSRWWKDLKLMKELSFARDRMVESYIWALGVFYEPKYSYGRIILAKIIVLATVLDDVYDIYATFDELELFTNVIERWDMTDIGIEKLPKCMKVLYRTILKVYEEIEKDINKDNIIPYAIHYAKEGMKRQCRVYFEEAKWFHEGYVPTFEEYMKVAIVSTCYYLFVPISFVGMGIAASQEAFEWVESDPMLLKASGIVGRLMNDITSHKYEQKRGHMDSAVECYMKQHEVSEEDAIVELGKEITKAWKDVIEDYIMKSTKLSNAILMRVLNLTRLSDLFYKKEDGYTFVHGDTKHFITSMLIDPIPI

CsTPS11 = biological target: T6, CsTPS11 (Cucumis sativus, UniProt A0A0A0LMX2); conditions: 30 °C, 60 min; 10 µM substrate
T6 construct: gene Csa_2G299920; full-length cDNA in pACYCDuet, E. coli BL21(DE3); predicted plastid transit peptide
T6 sequence (A0A0A0LMX2 1-474): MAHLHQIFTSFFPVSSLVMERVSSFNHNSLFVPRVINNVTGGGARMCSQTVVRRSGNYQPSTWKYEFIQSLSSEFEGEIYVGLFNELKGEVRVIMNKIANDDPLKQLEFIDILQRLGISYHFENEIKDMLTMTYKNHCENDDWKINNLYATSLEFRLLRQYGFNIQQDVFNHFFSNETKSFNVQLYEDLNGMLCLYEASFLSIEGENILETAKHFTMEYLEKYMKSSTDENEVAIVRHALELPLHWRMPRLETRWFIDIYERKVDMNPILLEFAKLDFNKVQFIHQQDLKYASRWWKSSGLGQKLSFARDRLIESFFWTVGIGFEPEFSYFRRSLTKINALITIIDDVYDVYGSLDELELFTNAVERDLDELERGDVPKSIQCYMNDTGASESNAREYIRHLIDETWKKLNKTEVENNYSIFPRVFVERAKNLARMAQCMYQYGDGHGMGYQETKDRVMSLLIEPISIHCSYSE

CsTPS15 = biological target: T7, CsTPS15 (Cucumis sativus, UniProt A0A0A0L782); conditions: 30 °C, 60 min; 10 µM substrate
T7 construct: gene Csa_3G040850; full-length cDNA in pACYCDuet, E. coli BL21(DE3); predicted plastid transit peptide
T7 sequence (A0A0A0L782 1-568): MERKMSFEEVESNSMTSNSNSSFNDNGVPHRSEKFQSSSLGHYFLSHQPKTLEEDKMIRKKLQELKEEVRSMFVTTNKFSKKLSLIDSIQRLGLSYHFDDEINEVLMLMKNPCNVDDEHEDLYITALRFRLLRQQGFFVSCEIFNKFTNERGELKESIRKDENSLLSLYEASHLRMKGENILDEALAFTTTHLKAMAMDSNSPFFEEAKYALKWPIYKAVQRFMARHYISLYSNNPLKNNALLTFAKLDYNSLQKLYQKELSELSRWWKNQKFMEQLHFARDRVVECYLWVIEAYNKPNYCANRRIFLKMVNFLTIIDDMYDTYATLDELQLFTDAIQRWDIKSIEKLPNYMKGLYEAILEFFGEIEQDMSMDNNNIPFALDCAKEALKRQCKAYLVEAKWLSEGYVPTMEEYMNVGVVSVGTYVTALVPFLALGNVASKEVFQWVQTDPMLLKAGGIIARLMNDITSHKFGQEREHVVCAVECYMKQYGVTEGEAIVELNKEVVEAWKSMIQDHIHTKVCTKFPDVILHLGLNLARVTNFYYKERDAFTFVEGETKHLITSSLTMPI

Structure (SMILES) | product formation, stir-bar GC-MS, recombinant E. coli protein (CsTPS24) | product formation, stir-bar GC-MS, recombinant E. coli protein (CsTPS12) | product formation, stir-bar GC-MS, recombinant E. coli protein (CsTPS22) | product formation, stir-bar GC-MS, recombinant E. coli protein (CsTPS24; 10 µM substrate) | product formation, stir-bar GC-MS, recombinant E. coli protein (CsTPS19) | product formation, stir-bar GC-MS, recombinant E. coli protein (CsTPS14) | product formation, stir-bar GC-MS, recombinant E. coli protein (CsTPS11) | product formation, stir-bar GC-MS, recombinant E. coli protein (CsTPS15)
CC(C)=CCC/C(C)=C/CC/C(C)=C/CC/C(C)=C/COP(=O)(O)OP(=O)(O)O [GGPP] | only CsTPS24 accepted GGPP to produce geranyl linalool |  |  |  |  |  |  | 
CC(C)=CCC/C(C)=C/CC/C(C)=C/COP(=O)(O)OP(=O)(O)O [FPP] |  | CsTPS12, CsTPS14 and CsTPS17, which all catalysed the formation of (E)‐β‐farnesene | the major products of CsTPS22 were (E)‐nerolidol and cadinol | both enzymes produced (E)‐nerolidol from FPP | CsTPS19 predominantly catalysed the formation of (E,E)‐α‐farnesene from FPP | CsTPS12, CsTPS14 and CsTPS17, which all catalysed the formation of (E)‐β‐farnesene |  | 
CC(C)=CCC/C(C)=C/COP(=O)(O)OP(=O)(O)O [GPP] |  |  |  |  | CsTPS19 which efficiently catalysed the formation of (E)‐β‐ocimene, myrcene and linalool from GPP |  | CsTPS11 and CsTPS15 both catalysed the formation of myrcene, limonene | CsTPS11 and CsTPS15 both catalysed the formation of myrcene, limonene
